Assay results reported in patent US20100331305A1, “OXO-HETEROCYCLE FUSED PYRIMIDINE COMPOUNDS, COMPOSITIONS AND METHODS OF USE” (Genentech, Inc., priority 2009, published 2010).
Where “and” joins values, the source holds several entries; their conditions need not be identical. Identical values can stand only once.

Molecular target: mTOR enzyme (mTOR(1360-2549)+GBL) (Homo sapiens, UniProt P42345)
Experiment: In vitro mTOR kinase assay (TR-FRET)
Type: biochemical
Details: 0.25 nM mTOR+GBL, 8 uM ATP; values tied to compounds by order of Table 1; 'x or y' = two alternative values for separated diastereomers of unassigned stereochemistry; read-out: activity level (Ki) in the mTOR kinase assay
Source text: a. In Vitro mTOR Kinase Assay
The reaction is stopped by an addition of a Terbium-labeled phospho-specific antibody, e.g., Tb-labeled anti-p4E-BP1 T37/T46, (Invitrogen, product #PR8835A), EDTA, and TR-FRET buffer solution (Invitrogen, Product #PR3756B). Product formation is detected by way of time-resolved fluorescence resonance energy transfer (TR-FRET), which occurs when the phosphorylated substrate and labeled antibody are in close proximity due to phospho-specific binding. Enzymatic activity is measured as an increase in TR-FRET signal using a Perkin Elmer Envision plate reader.
Compound activity is tested in 10 point dose curves starting at the highest final concentration of 10 uM. They are serially diluted in 100% DMSO prior to further dilution with assay buffer. […] 8 μL of solution containing 2 nM Tb-anti-p4E-BP1 antibody & 10 mM EDTA diluted TR-FRET buffer is then added and incubated for 30 minutes to stop the reaction. The plate is scanned with the Envision plate reader. Ki values are calculated in Assay Explorer using the Morrison ATP-competitive tight binding equation for Ki apparent determination.

Sequence of mTOR enzyme (mTOR(1360-2549)+GBL) (P42345 1360-2549, species assumed): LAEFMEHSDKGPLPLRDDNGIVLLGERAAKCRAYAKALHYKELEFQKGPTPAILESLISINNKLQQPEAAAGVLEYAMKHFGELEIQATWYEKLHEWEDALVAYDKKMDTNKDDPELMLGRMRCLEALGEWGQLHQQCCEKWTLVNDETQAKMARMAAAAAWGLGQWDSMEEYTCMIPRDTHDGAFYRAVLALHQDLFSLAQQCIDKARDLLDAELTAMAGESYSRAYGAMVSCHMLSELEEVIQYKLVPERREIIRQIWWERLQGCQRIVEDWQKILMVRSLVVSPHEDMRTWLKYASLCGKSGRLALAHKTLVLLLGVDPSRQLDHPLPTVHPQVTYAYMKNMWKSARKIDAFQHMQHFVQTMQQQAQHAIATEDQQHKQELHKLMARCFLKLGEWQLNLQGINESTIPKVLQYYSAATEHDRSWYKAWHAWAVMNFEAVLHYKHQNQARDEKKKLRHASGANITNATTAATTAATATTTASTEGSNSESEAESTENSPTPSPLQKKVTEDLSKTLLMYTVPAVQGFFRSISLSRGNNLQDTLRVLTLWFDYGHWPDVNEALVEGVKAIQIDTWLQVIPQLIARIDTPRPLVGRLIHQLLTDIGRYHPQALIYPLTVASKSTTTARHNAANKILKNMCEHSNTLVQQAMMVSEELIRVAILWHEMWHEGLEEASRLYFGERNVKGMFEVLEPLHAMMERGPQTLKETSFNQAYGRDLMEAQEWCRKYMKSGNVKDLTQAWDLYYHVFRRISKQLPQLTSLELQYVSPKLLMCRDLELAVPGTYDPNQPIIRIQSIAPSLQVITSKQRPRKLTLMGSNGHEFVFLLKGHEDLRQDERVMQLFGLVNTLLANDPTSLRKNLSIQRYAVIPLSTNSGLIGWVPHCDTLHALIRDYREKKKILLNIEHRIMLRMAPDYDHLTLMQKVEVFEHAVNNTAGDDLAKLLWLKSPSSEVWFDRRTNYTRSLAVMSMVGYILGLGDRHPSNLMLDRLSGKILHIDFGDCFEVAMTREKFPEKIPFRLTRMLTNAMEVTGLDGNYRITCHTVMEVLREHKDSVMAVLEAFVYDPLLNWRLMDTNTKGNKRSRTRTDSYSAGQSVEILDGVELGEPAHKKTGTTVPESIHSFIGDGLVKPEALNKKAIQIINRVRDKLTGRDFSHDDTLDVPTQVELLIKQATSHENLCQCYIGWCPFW
Sequence of mTOR enzyme (mTOR(1360-2549)+GBL) (Q9BVC4 whole entry partner, species assumed): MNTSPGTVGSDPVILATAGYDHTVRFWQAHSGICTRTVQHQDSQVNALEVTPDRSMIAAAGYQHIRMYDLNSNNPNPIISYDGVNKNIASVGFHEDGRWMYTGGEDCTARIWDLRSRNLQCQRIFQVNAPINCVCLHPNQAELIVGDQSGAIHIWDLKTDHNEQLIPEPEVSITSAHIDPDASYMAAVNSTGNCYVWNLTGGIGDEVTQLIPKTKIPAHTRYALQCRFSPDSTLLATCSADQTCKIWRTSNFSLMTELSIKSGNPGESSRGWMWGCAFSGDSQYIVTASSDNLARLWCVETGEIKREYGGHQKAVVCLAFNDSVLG

Compound	Ki
CCNC(=O)Nc1ccc(-c2nc3c(c(N4CCOCC4C)n2)C2CCC(C3)O2)cc1 (single isomer, unassigned) [Example 62 do^2]	6 nM and 2 nM
CC1COCCN1c1nc(-c2ccc(NC(=O)NC3COC3)cc2)nc2c1C1CCC(C2)O1 (single isomer, unassigned) [Example 63 dp^2]	10 nM and 2 nM
CCNC(=O)N(CC)C(=O)Nc1ccc(-c2nc3c(c(N4CCOCC4)n2)CCOC3)cc1 [Example 12, 1-ethyl-1-((ethylamino)carbonyl)-3-(4-(4-morpholino-6,8-dihydro-5H-pyrano[3,4-d]pyrimidin-2-yl)phenyl)urea]	4330 nM
CCNC(=O)N(CC)C(=O)Nc1ccc(-c2nc3c(c(N4CCOC[C@@H]4C)n2)CCOC3)cc1 [Example 13 am, (S)-1-ethyl-1-((ethylamino)carbonyl)-3-(4-(4-(3-methylmorpholino)-6,8-dihydro-5H-pyrano[3,4-d]pyrimidin-2-yl)phenyl)urea]	1180 nM
C[C@H]1COCCN1c1nc(-c2ccc(S(C)(=O)=O)cc2)nc2c1COCC2 [Example 36, (S)-4-(3-methylmorpholino)-2-(4-(methylsulfonyl)phenyl)-7,8-dihydro-5H-pyrano[4,3-d]pyrimidine]	102 nM
CNS(=O)(=O)c1ccc(-c2nc3c(c(N4CCOC[C@@H]4C)n2)COCC3)cc1 [Example 37, (S)—N-methyl-4-(4-(3-methylmorpholino)-7,8-dihydro-5H-pyrano[4,3-d]pyrimidin-2-yl)benzenesulfonamide]	343 nM
C[C@H]1COCCN1c1nc(-c2ccc(NS(C)(=O)=O)cc2)nc2c1COCC2 [Example 38, (S)—N-(4-(4-(3-methylmorpholino)-7,8-dihydro-5H-pyrano[4,3-d]pyrimidin-2-yl)phenyl)methanesulfonamide]	272 nM
C[C@H]1COCCN1c1nc(-c2ccc(NS(=O)(=O)C3CC3)cc2)nc2c1COCC2 [Example 39, (S)—N-(4-(4-(3-methylmorpholino)-7,8-dihydro-5H-pyrano[4,3-d]pyrimidin-2-yl)phenyl)cyclopropanesulfonamide]	270 nM
CCS(=O)(=O)Nc1ccc(-c2nc3c(c(N4CCOC[C@@H]4C)n2)COCC3)cc1 [Example 40, (S)—N-(4-(4-(3-methylmorpholino)-7,8-dihydro-5H-pyrano[4,3-d]pyrimidin-2-yl)phenyl)ethanesulfonamide]	183 nM
COC1CCN(c2nc(-c3ccc(NC(=O)NC4COC4)cc3)nc3c2CCC2(CC2)O3)CC1 [Example 46, 1-(4-(4′-(4-methoxypiperidin-1-yl)-5′,6′-dihydrospiro[cyclopropane-1,7′-pyrano[2,3-d]pyrimidine]-2′-yl)phenyl)-3-(oxetan-3-yl)urea]	620 nM
COC1CCN(c2nc(-c3ccc(NC(=O)Nc4ccn(C)n4)cc3)nc3c2CCC2(CC2)O3)CC1 [Example 47, 1-(4-(4′-(4-methoxypiperidin-1-yl)-5′,6′-dihydrospiro[cyclopropane-1,7′-pyrano[2,3-d]pyrimidine]-2′-yl)phenyl)-3-(1-methyl-1H-pyrazol-3-yl)urea]	884 nM
COC1CCN(c2nc(-c3ccc(Nc4nccc(=O)[nH]4)cc3)nc3c2CCC2(CC2)O3)CC1 [Example 48, 2-(4-(4′-(4-methoxypiperidin-1-yl)-5′,6′-dihydrospiro[cyclopropane-1,7′-pyrano[2,3-d]pyrimidine]-2′-yl)phenylamino)pyrimidin-4(3H)-one]	392 nM
Nc1nc2ccc(-c3nc4c(c(N5C[C@H]6CC[C@@H](C5)O6)n3)CCCO4)cc2[nH]1 [Example 61, 6-(4-((1R,5S)-8-oxa-3-azabicyclo[3.2.1]octan-3-yl)-6,7-dihydro-5H-pyrano[2,3-d]pyrimidin-2-yl)-1H-benzo[d]imidazol-2-amine]	12 nM
C[C@H]1COCCN1c1nc(-c2ccc3nc(N)[nH]c3c2)nc2c1CCCO2 [Example 64, (S)-6-(4-(3-methylmorpholino)-6,7-dihydro-5H-pyrano[2,3-d]pyrimidin-2-yl)-1H-benzo[d]imidazol-2-amine]	122 nM
CCNC(=O)Nc1ccc(-c2nc(N3CCOC[C@@H]3C)c3c(n2)[C@@](C)(CCN2CCOCC2)OC3)cc1 [Example 76 eo (R), 1-ethyl-3-(4-((R)-7-methyl-4-((S)-3-methylmorpholino)-7-(2-morpholinoethyl)-5,7-dihydrofuro[3,4-d]pyrimidin-2-yl)phenyl)urea]	15 nM
CCNC(=O)Nc1ccc(-c2nc(N3CCOC[C@@H]3C)c3c(n2)[C@@](C)(CCN2CCC2)OC3)cc1 [Example 79 er (R), 1-(4-((R)-7-(2-(azetidin-1-yl)ethyl)-7-methyl-4-((S)-3-methylmorpholino)-5,7-dihydrofuro[3,4-d]pyrimidin-2-yl)phenyl)-3-ethylurea]	57 nM
CCNC(=O)Nc1ccc(-c2nc3c(c(N4CCOC[C@@H]4C)n2)COC3=O)cc1 [Example 90, (S)-1-ethyl-3-(4-(4-(3-methylmorpholino)-7-oxo-5,7-dihydrofuro[3,4-d]pyrimidin-2-yl)phenyl)urea]	76 nM
COCC[C@@]1(C)OCc2c(N3CCOC[C@@H]3C)nc(-c3cnc(N)nc3)nc21 [Example 101 go (R), 5-((R)-7-(2-methoxyethyl)-7-methyl-4-((S)-3-methylmorpholino)-5,7-dihydrofuro[3,4-d]pyrimidin-2-yl)pyrimidin-2-amine]	258 nM
COCC[C@]1(C)OCc2c(N3CCOC[C@@H]3C)nc(-c3cnc(N)nc3)nc21 [Example 101 go (S), 5-((S)-7-(2-methoxyethyl)-7-methyl-4-((S)-3-methylmorpholino)-5,7-dihydrofuro[3,4-d]pyrimidin-2-yl)pyrimidin-2-amine]	393 nM
C[C@H]1COCCN1c1nc(-c2cnc(N)nc2)nc2c1CO[C@]2(C)CCOc1ccccc1 [Example 104 gs (R), 5-((R)-7-methyl-4-((S)-3-methylmorpholino)-7-(2-phenoxyethyl)-5,7-dihydrofuro[3,4-d]pyrimidin-2-yl)pyrimidin-2-amine]	297 nM
CC1(C)OCc2c(N3[C@@H]4CC[C@H]3COC4)nc(-c3cnc(N)nc3)nc21 [Example 106, 5-(4-((1R,5S)-3-oxa-8-azabicyclo[3.2.1]octan-8-yl)-7,7-dimethyl-5,7-dihydrofuro[3,4-d]pyrimidin-2-yl)pyrimidin-2-amine]	10 nM
COCC[C@]1(C)OCc2c(N3CCOC[C@@H]3C)nc(-c3ccc(N)nc3)nc21 [Example 111 hf^1]	101 nM and 30 nM
CC1(C)OCc2c(N3CCOCC3)nc(-c3ccc4nc(N)[nH]c4c3)nc21 [Example 118, 6-(7,7-dimethyl-4-morpholino-5,7-dihydrofuro[3,4-d]pyrimidin-2-yl)-1H-benzo[d]imidazol-2-amine]	4 nM
C[C@H]1COCCN1c1nc(-c2ccc3nc(N)[nH]c3c2)nc2c1COC2(C)C [Example 122, (S)-6-(7,7-dimethyl-4-(3-methylmorpholino)-5,7-dihydrofuro[3,4-d]pyrimidin-2-yl)-1H-benzo[d]imidazol-2-amine]	7 nM
CC[C@H]1COCCN1c1nc(-c2ccc(N)nc2)nc2c1CCCO2 [Example 129, (S)-5-(4-(3-ethylmorpholino)-6,7-dihydro-5H-pyrano[2,3-d]pyrimidin-2-yl)pyridin-2-amine]	11 nM
Nc1ncc(-c2nc3c(c(N4C[C@H]5CC[C@@H](C4)O5)n2)CCCO3)cn1 [Example 131, 5-(4-((1R,5S)-8-oxa-3-azabicyclo[3.2.1]octan-3-yl)-6,7-dihydro-5H-pyrano[2,3-d]pyrimidin-2-yl)pyrimidin-2-amine]	106 nM
